Experimental data: PubChem BioAssay AID2060883 (Molecular Pharmacology Branch, DTP, NCI, 2025)
Values belong to the compound of their own block, whether it stands above or below them.

Test system: 843782-103-R-J1-PDC complex spheroid viability
Test: Anticancer human tumor 843782-103-R-J1-PDC patient-derived lung adenocarcinoma cell line growth inhibition [RAS]
Conditions: for IC50: curve of first compound; for viability, T/C: stronger effect = lower value
Outline: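 Tumour cells grown as complex spheroids with HUVEC endothelial cells and mesenchymal stem cells, treated with RAS pathway inhibitor combinations. Each agent spans half-log steps from near clinical Cmax, or 10 microM where Cmax is unknown.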

[1] = second compound 0.000949 µM, first compound 0.0316 µM
[2] = second compound 0.000949 µM, first compound 0.1 µM
[3] = second compound 0.003 µM, first compound 0.0316 µM
[4] = second compound 0.003 µM, first compound 0.1 µM
[5] = second compound 0.00949 µM, first compound 0.0316 µM
[6] = second compound 0.00949 µM, first compound 0.1 µM
[7] = second compound 0.03 µM, first compound 0.0316 µM
[8] = second compound 0.03 µM, first compound 0.1 µM
[9] = second compound 0.0949 µM, first compound 0.0316 µM
[10] = second compound 0.0949 µM, first compound 0.1 µM
[11] = second compound 0.3 µM, first compound 0.0316 µM
[12] = second compound 0.3 µM, first compound 0.1 µM
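Also: viability read after seven days of compound exposure.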

IC50 (second compound 0.000949 µM): < 31.6 nM
IC50 (second compound 0.003 µM): < 31.6 nM
IC50 (second compound 0.00949 µM): < 31.6 nM
IC50 (second compound 0.03 µM): < 31.6 nM
IC50 (second compound 0.0949 µM): < 31.6 nM
IC50 (second compound 0.3 µM): < 31.6 nM
SMILES: CC(=O)OC12COC1CC(O)C1(C)C(=O)C(O)C3=C(C)C(OC(=O)C(O)C(NC(=O)OC(C)(C)C)c4ccccc4)CC(O)(C(OC(=O)c4ccccc4)C21)C3(C)C (stereo unspecified) + CCn1c(-c2cccnc2C(C)OC)c2c3cc(ccc31)N1CCOC(CC(NC(=O)C(C(C)C)N(C)C(=O)C3(F)CCN(C(=O)C#CC(C)(C)N(C)C)CC3)C(=O)N3CCCC(N3)C(=O)OCC(C)(C)C2)C1
viability, T/C [1]: 4.08%
viability, T/C [2]: 5.48%
viability, T/C (second compound 0.000949 µM, first compound 0.316 µM): 6.81%
viability, T/C (second compound 0.000949 µM, first compound 1 µM): 5.51%
viability, T/C (second compound 0.000949 µM, first compound 3.16 µM): 7.48%
viability, T/C (second compound 0.000949 µM, first compound 10 µM): 11.2%
viability, T/C [3]: 5.53%
viability, T/C [4]: 7.6%
viability, T/C (second compound 0.003 µM, first compound 0.316 µM): 7.77%
viability, T/C (second compound 0.003 µM, first compound 1 µM): 6.28%
viability, T/C (second compound 0.003 µM, first compound 3.16 µM): 6.75%
viability, T/C (second compound 0.003 µM, first compound 10 µM): 9.92%
viability, T/C [5]: 5.3%
viability, T/C [6]: 8.65%
viability, T/C (second compound 0.00949 µM, first compound 0.316 µM): 9.68%
viability, T/C (second compound 0.00949 µM, first compound 1 µM): 7.03%
viability, T/C (second compound 0.00949 µM, first compound 3.16 µM): 10%
viability, T/C (second compound 0.00949 µM, first compound 10 µM): 9.14%
viability, T/C [7]: 5.25%
viability, T/C [8]: 7.67%
viability, T/C (second compound 0.03 µM, first compound 0.316 µM): 6.65%
viability, T/C (second compound 0.03 µM, first compound 1 µM): 8.38%
viability, T/C (second compound 0.03 µM, first compound 3.16 µM): 9.51%
viability, T/C (second compound 0.03 µM, first compound 10 µM): 12.3%
viability, T/C [9]: 8.61%
viability, T/C [10]: 7.03%
viability, T/C (second compound 0.0949 µM, first compound 0.316 µM): 8.34%
viability, T/C (second compound 0.0949 µM, first compound 1 µM): 7.78%
viability, T/C (second compound 0.0949 µM, first compound 3.16 µM): 10.6%
viability, T/C (second compound 0.0949 µM, first compound 10 µM): 9.37%
viability, T/C [11]: 3.84%
viability, T/C [12]: 5.17%
viability, T/C (second compound 0.3 µM, first compound 0.316 µM): 6.69%
viability, T/C (second compound 0.3 µM, first compound 1 µM): 9.62%
viability, T/C (second compound 0.3 µM, first compound 3.16 µM): 8.58%
viability, T/C (second compound 0.3 µM, first compound 10 µM): 9.58%

IC50 (second compound 0.000949 µM): 5.34 nM
IC50 (second compound 0.003 µM): 3.42 nM
IC50 (second compound 0.00949 µM): < 0.316 nM
IC50 (second compound 0.03 µM): < 0.316 nM
IC50 (second compound 0.0949 µM): < 0.316 nM
IC50 (second compound 0.3 µM): < 0.316 nM
SMILES: CC(C)n1nc(-c2ccc3oc(N)nc3c2)c2c(N)ncnc21 + CCn1c(-c2cc(N3CCN(C)CC3)cnc2C(C)OC)c2c3cc(ccc31)-c1csc(n1)CC(NC(=O)C1CC1C)C(=O)N1CCCC(N1)C(=O)OCC(C)(C)C2
viability, T/C (second compound 0.000949 µM, first compound 0.000316 µM): 73%
viability, T/C (second compound 0.000949 µM, first compound 0.001 µM): 70.4%
viability, T/C (second compound 0.000949 µM, first compound 0.00316 µM): 58.7%
viability, T/C (second compound 0.000949 µM, first compound 0.01 µM): 38.6%
viability, T/C [1]: 24.8%
viability, T/C [2]: 13.5%
viability, T/C (second compound 0.003 µM, first compound 0.000316 µM): 49.6%
viability, T/C (second compound 0.003 µM, first compound 0.001 µM): 57.5%
viability, T/C (second compound 0.003 µM, first compound 0.00316 µM): 52.5%
viability, T/C (second compound 0.003 µM, first compound 0.01 µM): 27.7%
viability, T/C [3]: 19.7%
viability, T/C [4]: 11%
viability, T/C (second compound 0.00949 µM, first compound 0.000316 µM): 36.5%
viability, T/C (second compound 0.00949 µM, first compound 0.001 µM): 36.6%
viability, T/C (second compound 0.00949 µM, first compound 0.00316 µM): 28.2%
viability, T/C (second compound 0.00949 µM, first compound 0.01 µM): 19.7%
viability, T/C [5]: 11.6%
viability, T/C [6]: 7.59%
viability, T/C (second compound 0.03 µM, first compound 0.000316 µM): 22.3%
viability, T/C (second compound 0.03 µM, first compound 0.001 µM): 19.4%
viability, T/C (second compound 0.03 µM, first compound 0.00316 µM): 13.2%
viability, T/C (second compound 0.03 µM, first compound 0.01 µM): 12.6%
viability, T/C [7]: 7.81%
viability, T/C [8]: 4.67%
viability, T/C (second compound 0.0949 µM, first compound 0.000316 µM): 15.6%
viability, T/C (second compound 0.0949 µM, first compound 0.001 µM): 13.8%
viability, T/C (second compound 0.0949 µM, first compound 0.00316 µM): 12.8%
viability, T/C (second compound 0.0949 µM, first compound 0.01 µM): 10.3%
viability, T/C [9]: 7.44%
viability, T/C [10]: 4.77%
viability, T/C (second compound 0.3 µM, first compound 0.000316 µM): 13.9%
viability, T/C (second compound 0.3 µM, first compound 0.001 µM): 13.4%
viability, T/C (second compound 0.3 µM, first compound 0.00316 µM): 10.7%
viability, T/C (second compound 0.3 µM, first compound 0.01 µM): 9.85%
viability, T/C [11]: 6.87%
viability, T/C [12]: 3.78%

IC50 (second compound 0.000949 µM): 1.49 nM
IC50 (second compound 0.003 µM): 1.45 nM
IC50 (second compound 0.00949 µM): 1.26 nM
IC50 (second compound 0.03 µM): 1.27 nM
IC50 (second compound 0.0949 µM): 1.46 nM
IC50 (second compound 0.3 µM): 1.23 nM
SMILES: CCc1c2c(nc3ccc(O)cc13)-c1cc3c(c(=O)n1C2)COC(=O)[C@]3(O)CC + CCn1c(-c2cccnc2C(C)OC)c2c3cc(ccc31)N1CCOC(CC(NC(=O)C(C(C)C)N(C)C(=O)C3(F)CCN(C(=O)C#CC(C)(C)N(C)C)CC3)C(=O)N3CCCC(N3)C(=O)OCC(C)(C)C2)C1
viability, T/C (second compound 0.000949 µM, first compound 0.000949 µM): 67.3%
viability, T/C (second compound 0.000949 µM, first compound 0.003 µM): 23.5%
viability, T/C (second compound 0.000949 µM, first compound 0.00949 µM): 6.26%
viability, T/C (second compound 0.000949 µM, first compound 0.03 µM): 2.82%
viability, T/C (second compound 0.000949 µM, first compound 0.0949 µM): 1.64%
viability, T/C (second compound 0.000949 µM, first compound 0.3 µM): 1.49%
viability, T/C (second compound 0.003 µM, first compound 0.000949 µM): 63.3%
viability, T/C (second compound 0.003 µM, first compound 0.003 µM): 27%
viability, T/C (second compound 0.003 µM, first compound 0.00949 µM): 5.6%
viability, T/C (second compound 0.003 µM, first compound 0.03 µM): 2.52%
viability, T/C (second compound 0.003 µM, first compound 0.0949 µM): 1.9%
viability, T/C (second compound 0.003 µM, first compound 0.3 µM): 1.58%
viability, T/C (second compound 0.00949 µM, first compound 0.000949 µM): 59.1%
viability, T/C (second compound 0.00949 µM, first compound 0.003 µM): 22.9%
viability, T/C (second compound 0.00949 µM, first compound 0.00949 µM): 6.03%
viability, T/C (second compound 0.00949 µM, first compound 0.03 µM): 2.26%
viability, T/C (second compound 0.00949 µM, first compound 0.0949 µM): 1.84%
viability, T/C (second compound 0.00949 µM, first compound 0.3 µM): 2.05%
viability, T/C (second compound 0.03 µM, first compound 0.000949 µM): 59.7%
viability, T/C (second compound 0.03 µM, first compound 0.003 µM): 21.9%
viability, T/C (second compound 0.03 µM, first compound 0.00949 µM): 3.99%
viability, T/C (second compound 0.03 µM, first compound 0.03 µM): 2.11%
viability, T/C (second compound 0.03 µM, first compound 0.0949 µM): 1.92%
viability, T/C (second compound 0.03 µM, first compound 0.3 µM): 1.55%
viability, T/C (second compound 0.0949 µM, first compound 0.000949 µM): 68.9%
viability, T/C (second compound 0.0949 µM, first compound 0.003 µM): 18.6%
viability, T/C (second compound 0.0949 µM, first compound 0.00949 µM): 3.32%
viability, T/C (second compound 0.0949 µM, first compound 0.03 µM): 1.45%
viability, T/C (second compound 0.0949 µM, first compound 0.0949 µM): 1.1%
viability, T/C (second compound 0.0949 µM, first compound 0.3 µM): 1.93%
viability, T/C (second compound 0.3 µM, first compound 0.000949 µM): 59.3%
viability, T/C (second compound 0.3 µM, first compound 0.003 µM): 17.8%
viability, T/C (second compound 0.3 µM, first compound 0.00949 µM): 3.68%
viability, T/C (second compound 0.3 µM, first compound 0.03 µM): 2.01%
viability, T/C (second compound 0.3 µM, first compound 0.0949 µM): 1.36%
viability, T/C (second compound 0.3 µM, first compound 0.3 µM): 1.25%
